Experimental data: ChEMBL document CHEMBL1201862, “PubChem BioAssay data set” (2004)
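Following 48 hours of exposure in 96-well plates, responses at five concentrations were used to interpolate endpoints linearly. The concentration for 50% growth inhibition is given as GI50.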 Activity calls are given as the source filed them. Rule as the data show it: active = GI50 up to about 1.1 µM and inactive = higher.

Key:
Test in all cases: NCI-60 cell line screen, 48 h
786-0 = system: 786-0
A549 = system: A549
ACHN = system: ACHN
BT-549 = system: BT-549
CAKI-1 = system: CAKI-1
CCRF-CEM = system: CCRF-CEM
COLO 205 = system: COLO 205
DU-145 = system: DU-145
EKVX = system: EKVX
HCC 2998 = system: HCC 2998
HCT-116 = system: HCT-116
HCT-15 = system: HCT-15
HL-60 = system: HL-60
HOP-62 = system: HOP-62
HOP-92 = system: HOP-92
HT-29 = system: HT-29
K562 = system: K562
KM12 = system: KM12
LOX IMVI = system: LOX IMVI
M14 = system: M14
MCF7 = system: MCF7
MDA-MB-231 = system: MDA-MB-231
MDA-MB-435 = system: MDA-MB-435
MDA-N = system: MDA-N
MOLT-4 = system: MOLT-4
Malme-3M = system: Malme-3M
NCI-H23 = system: NCI-H23
NCI-H460 = system: NCI-H460
NCI/ADR-RES = system: NCI/ADR-RES
OVCAR-3 = system: OVCAR-3
OVCAR-4 = system: OVCAR-4
OVCAR-5 = system: OVCAR-5
OVCAR-8 = system: OVCAR-8
PC-3 = system: PC-3
RPMI-8226 = system: RPMI-8226
SF-295 = system: SF-295
SK-MEL-28 = system: SK-MEL-28
SK-MEL-2 = system: SK-MEL-2
SK-MEL-5 = system: SK-MEL-5
SN12C = system: SN12C
SNB-19 = system: SNB-19
SR = system: SR
TK-10 = system: TK-10
U-251 = system: U-251
UACC-257 = system: UACC-257
UO-31 = system: UO-31
A498 = system: A498
Hs-578T = system: Hs-578T
IGROV-1 = system: IGROV-1
NCI-H226 = system: NCI-H226
NCI-H522 = system: NCI-H522
RXF 393 = system: RXF 393
SF-268 = system: SF-268
SF-539 = system: SF-539
SK-OV-3 = system: SK-OV-3
SNB-75 = system: SNB-75
SW-620 = system: SW-620
T47D = system: T47D
UACC-62 = system: UACC-62

Measured: GI50

O=C(O)CCCn1nnc2c(=O)[nH][nH]c(=O)c21
> 100 µM: HCT-15
inactive: 786-0 > 100 µM | A549 > 100 µM | ACHN > 100 µM | BT-549 > 100 µM | CAKI-1 > 100 µM | CCRF-CEM > 100 µM | COLO 205 > 100 µM | DU-145 > 100 µM | EKVX > 100 µM | HCC 2998 > 100 µM | HCT-116 > 100 µM | HL-60 > 100 µM | HOP-62 > 100 µM | HOP-92 > 100 µM | HT-29 > 100 µM | K562 > 100 µM | KM12 > 100 µM | LOX IMVI > 100 µM | M14 > 100 µM | MCF7 > 100 µM | MDA-MB-231 > 100 µM | MDA-MB-435 > 100 µM | MDA-N > 100 µM | MOLT-4 > 100 µM | Malme-3M > 100 µM | NCI-H23 > 100 µM | NCI-H460 > 100 µM | NCI/ADR-RES > 100 µM | OVCAR-3 > 100 µM | OVCAR-4 > 100 µM | OVCAR-5 > 100 µM | OVCAR-8 > 100 µM | PC-3 > 100 µM | RPMI-8226 > 100 µM | SF-295 > 100 µM | SK-MEL-28 > 100 µM | SK-MEL-2 > 100 µM | SK-MEL-5 > 100 µM | SN12C > 100 µM | SNB-19 > 100 µM | SR > 100 µM | TK-10 > 100 µM | U-251 > 100 µM | UACC-257 > 100 µM | UO-31 > 100 µM

CCCCC1=CC1(C#N)[N+](=O)[O-] (centres undefined)
> 100 µM: HCT-15
inactive: 786-0 72.4 µM | A498 76.2 µM | A549 > 100 µM | ACHN > 100 µM | BT-549 40.6 µM | CAKI-1 > 100 µM | CCRF-CEM 18.1 µM | COLO 205 > 100 µM | DU-145 > 100 µM | EKVX > 100 µM | HCC 2998 > 100 µM | HCT-116 33.1 µM | HL-60 > 10 µM | HOP-62 > 100 µM | HOP-92 48.9 µM | HT-29 > 100 µM | Hs-578T > 100 µM | IGROV-1 > 100 µM | K562 22.3 µM | KM12 > 100 µM | LOX IMVI 31.3 µM | M14 30.8 µM | MCF7 45.4 µM | MDA-MB-231 > 100 µM | MDA-MB-435 > 100 µM | MOLT-4 23.3 µM | Malme-3M 53.6 µM | NCI-H226 > 100 µM | NCI-H23 > 100 µM | NCI-H460 > 100 µM | NCI-H522 45.6 µM | NCI/ADR-RES > 100 µM | OVCAR-3 > 100 µM | OVCAR-4 > 100 µM | OVCAR-5 > 100 µM | OVCAR-8 > 100 µM | PC-3 > 100 µM | RPMI-8226 25.1 µM | RXF 393 > 100 µM | SF-268 > 100 µM | SF-295 > 100 µM | SF-539 > 100 µM | SK-MEL-28 > 100 µM | SK-MEL-5 36.5 µM | SK-OV-3 > 100 µM | SN12C 90.8 µM | SNB-19 > 100 µM | SNB-75 39.9 µM | SR 33.3 µM | SW-620 31.8 µM | T47D > 100 µM | TK-10 > 100 µM | U-251 > 100 µM | UACC-257 > 100 µM | UACC-62 60.3 µM | UO-31 > 100 µM

[N-]=[N+]=CC(=O)OCC1SCCCS1
inactive: 786-0 > 100 µM | A498 > 100 µM | ACHN 78.9 µM | BT-549 > 100 µM | CAKI-1 50.4 µM | CCRF-CEM > 100 µM | COLO 205 > 100 µM | DU-145 > 100 µM | EKVX > 100 µM | HCC 2998 > 100 µM | HCT-116 > 100 µM | HL-60 > 100 µM | HOP-62 89.7 µM | HOP-92 > 100 µM | HT-29 > 100 µM | IGROV-1 > 100 µM | K562 > 100 µM | KM12 > 100 µM | LOX IMVI > 100 µM | MCF7 > 100 µM | MDA-MB-231 > 100 µM | MDA-MB-435 > 100 µM | MDA-N > 100 µM | MOLT-4 > 100 µM | Malme-3M > 100 µM | NCI-H226 > 100 µM | NCI-H23 > 100 µM | NCI-H460 74.6 µM | NCI-H522 > 100 µM | OVCAR-3 > 100 µM | OVCAR-4 > 100 µM | OVCAR-5 > 100 µM | PC-3 > 100 µM | RPMI-8226 > 100 µM | RXF 393 > 100 µM | SF-268 > 100 µM | SF-295 > 100 µM | SK-MEL-28 > 100 µM | SK-MEL-2 > 100 µM | SK-MEL-5 > 100 µM | SK-OV-3 > 100 µM | SN12C > 100 µM | SNB-19 > 100 µM | SR > 100 µM | SW-620 > 100 µM | TK-10 > 100 µM | U-251 > 100 µM | UACC-257 > 100 µM | UACC-62 > 100 µM | UO-31 > 100 µM
> 100 µM: HCT-15

CCOc1ncn(-c2ccc(NC(=S)NC3OC(CO)C(O)C(O)C3O)cc2)n1 (centres undefined)
inactive: 786-0 > 100 µM | A549 > 100 µM | BT-549 > 100 µM | CCRF-CEM > 100 µM | COLO 205 > 100 µM | DU-145 > 100 µM | EKVX > 100 µM | HCC 2998 > 100 µM | HCT-116 > 100 µM | HL-60 > 100 µM | HOP-62 > 100 µM | HOP-92 > 100 µM | HT-29 > 100 µM | IGROV-1 > 100 µM | K562 > 100 µM | KM12 > 100 µM | LOX IMVI > 100 µM | M14 > 100 µM | MCF7 > 100 µM | MDA-MB-231 > 100 µM | MDA-MB-435 > 100 µM | MDA-N > 100 µM | MOLT-4 > 100 µM | NCI-H23 > 100 µM | NCI-H460 > 100 µM | NCI-H522 > 100 µM | OVCAR-3 > 100 µM | OVCAR-4 > 100 µM | OVCAR-5 > 100 µM | OVCAR-8 > 100 µM | PC-3 > 100 µM | RPMI-8226 > 100 µM | SF-268 > 100 µM | SF-295 > 100 µM | SF-539 > 100 µM | SK-MEL-28 > 100 µM | SK-MEL-5 > 100 µM | SK-OV-3 > 100 µM | SN12C > 100 µM | SNB-19 > 100 µM | SNB-75 > 100 µM | SR > 100 µM | SW-620 > 100 µM | T47D > 100 µM | TK-10 > 100 µM | U-251 > 100 µM | UACC-257 > 100 µM | UACC-62 > 100 µM | UO-31 > 100 µM
> 100 µM: HCT-15
